Assay results published in patent US7112553B1, “Pesticidal indazole or benzotriazole derivatives” (Syngenta Limited, priority 1999, dated 2006).

Experiments:
[1] = test system: Phytophthora infestans lycopersici (PHYTIN) on tomatoes; assay type: in vivo; settings: 100 ppm foliar spray; tomatoes inoculated one day after chemical application (Prot)
[2] = test system: Pyricularia oryzae (PYRIOR) on rice; assay type: in vivo; settings: 100 ppm foliar spray; rice inoculated one day after chemical application (Prot)
[3] = test system: Puccinia recondita (PUCCRT) on wheat; settings: in vivo
[4] = test system: Uncinula necator (UNCINE) on vines; settings: in vivo

Compound	PRCO (Percentage Reduction from Control) PHYTIN Prot [1]	PRCO (Percentage Reduction from Control) PYRIOR Prot [2]	PRCO (Percentage Reduction from Control) PUCCRT Prot [3]	PRCO (Percentage Reduction from Control) UNCINE Erad [4]
CCCn1nc2ccc(CC(=O)Nc3snc(C)c3Cl)cc2n1 [Sample 1, N-(4-chloro-3-methylisothiazol-5-yl)-(2-propylbenzotriazol-5-yl)acetamide]	100%	100%	100%	–
Cc1nsc(NC(=O)Cc2ccc3nn(C)nc3c2)c1Cl [Sample 2]	–	87%	–	–
Cc1nsc(NC(=O)Cc2ccc3nn(Cc4ccc(F)cc4)nc3c2)c1Cl [Sample 4]	–	92%	–	–
Cc1nsc(NC(=O)Cc2ccc3nn(CC(F)(F)F)nc3c2)c1Cl [Sample 8]	–	100%	–	–
CCCCCn1nc2ccc(CC(=O)Nc3snc(C)c3Cl)cc2n1 [Sample 9]	100%	100%	99%	–
Cc1nsc(NC(=O)Cc2ccc3nn(-c4ccc(C(F)(F)F)cc4Cl)nc3c2)c1Cl [Sample 11]	–	100%	–	–
CCCC(C)n1nc2ccc(CC(=O)Nc3snc(C)c3Cl)cc2n1 (stereo not shown) [Sample 30]	100%	–	100%	100%
CCC(C)n1nc2ccc(CC(=O)Nc3snc(C)c3Cl)cc2n1 (stereo not shown) [Sample 31]	100%	–	100%	100%
CCCn1nc2ccc(CC(=O)N=c3sn(COCC)c(C)c3Cl)cc2n1 [Sample 34, N-[2-ethoxymethyl-4-chloro-3-methylisothiazolin-5-ylidene]-(2-propylbenzo-triazol-5-yl)acetamide]	81%	93%	–	100%
